According to ChEMBL document CHEMBL1131492 (J Med Chem, 1998):
pIC50: −log10 of the molar value.

Assays:
[1] = biological target: T1, Sodium-dependent dopamine transporter (Rattus norvegicus, UniProt P23977); assay: Inhibition [3H]-cocaine binding to Cocaine receptor in rat striatal membranes.; type: cell membranes
[2] = biological target: Sodium-dependent dopamine transporter (Rattus norvegicus) (UniProt P23977); assay: Ability to inhibit binding of [3H]cocaine to Cocaine receptor in rat brain; type: tissue-based
[3] = biological target: Sodium-dependent dopamine transporter (Rattus norvegicus) (UniProt P23977); assay: Potency ratio for Cocaine receptor (IC50 cocaine /IC50 compound)
[4] = biological target: T1, Sodium-dependent dopamine transporter; assay: Inhibition [3H]DA uptake in rat striatal synaptosomes.; type: functional, subcellular, Brain
[5] = biological target: Sodium-dependent dopamine transporter (Rattus norvegicus) (UniProt P23977); assay: Dopamine (DA) uptake; type: functional
[6] = biological target: Sodium-dependent dopamine transporter (Rattus norvegicus) (UniProt P23977); assay: Value is difference between the cocaine binding and DA uptake

T1 sequence (P23977 whole entry): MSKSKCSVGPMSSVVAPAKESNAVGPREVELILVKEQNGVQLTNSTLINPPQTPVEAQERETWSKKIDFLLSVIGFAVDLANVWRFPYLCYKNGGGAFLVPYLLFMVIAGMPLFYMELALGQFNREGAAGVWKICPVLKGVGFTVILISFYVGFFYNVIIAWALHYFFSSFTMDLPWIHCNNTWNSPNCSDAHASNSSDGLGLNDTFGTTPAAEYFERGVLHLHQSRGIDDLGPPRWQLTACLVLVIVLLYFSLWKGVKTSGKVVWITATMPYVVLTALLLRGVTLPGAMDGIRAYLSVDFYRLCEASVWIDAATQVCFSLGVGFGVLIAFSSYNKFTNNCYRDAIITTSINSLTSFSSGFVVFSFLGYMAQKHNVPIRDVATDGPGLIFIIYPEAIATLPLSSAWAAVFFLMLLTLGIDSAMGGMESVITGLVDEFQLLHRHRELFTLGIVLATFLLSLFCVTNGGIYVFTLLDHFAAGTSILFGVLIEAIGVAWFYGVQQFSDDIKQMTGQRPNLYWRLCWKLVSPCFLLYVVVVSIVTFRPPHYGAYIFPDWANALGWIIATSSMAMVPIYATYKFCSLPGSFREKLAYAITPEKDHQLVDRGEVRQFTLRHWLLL
Chain of Sodium-dependent dopamine transporter (Rattus norvegicus) (P23977 whole entry): as above

SMILES	pIC50 [1]	Log potency ratio [2]	Log potency ratio [3]	pIC50 [4]	Log potency ratio [5]	Log potency ratio [6]
C=C(c1ccccc1)C1CC2CCC(C1C(=O)OC)N2C (centres undefined)	7.15	-0.83	0.15	6.86	0.18	-0.03
COC(=O)[C@@H]1C2CC[C@H](C[C@H]1c1ccc(-c3ccccc3)cc1)N2C	7.99	0.9	0.99	7.53	0.85	0.14
COC(=O)C1C(c2ccc(N)cc2)CC2CCC1N2C (centres undefined)		2.58	-0.14		0.18	-0.32
COC(=O)C1C(Cc2ccccc2)CC2CCC1N2C (centres undefined)				5.99		
COC(=O)C1C(OC(=O)c2cccc3ccccc23)CC2CCC1N2C (centres undefined)	6.13	0.01	-0.87	5.92	-0.76	-0.11
COC(=O)[C@H]1C2CC[C@H](C[C@H]1c1ccc3ccccc3c1)N2C	8.48	1.66	1.48	8.45	1.77	-0.29
COC(=O)[C@@H]1C2CC[C@H](C[C@H]1/C=C/c1ccccc1)N2C	8.68	0.48	1.68	8.23	1.55	0.13
COC(=O)[C@@H]1C2CC[C@H](C[C@H]1OC(=O)c1ccc3ccccc3c1)N2C	6.49	0.07	-0.51	6.09	-0.59	0.08
COC(=O)C1C(CCCc2ccccc2)CC2CCC1N2C (centres undefined)	6.46	-1.84	-0.53	5.57	-1.11	0.58
COC(=O)C1C(Cc2ccc3ccccc3c2)CC2CCC1N2C (centres undefined)				5.87		
COC(=O)[C@H]1[C@@H](c2ccc(F)cc2)C[C@H]2CC[C@H]1N2C		-0.49	0.59		0.94	-0.35
COC(=O)[C@@H]1C2CC[C@H](C[C@@H]1c1ccccc1)N2C			0.53		0.66	-0.13
COC(=O)C1C(c2ccc([N+](=O)[O-])cc2)CC2CCC1N2C (centres undefined)		1.48	0.006			-0.134
COC(=O)[C@@H]1C2CC[C@H](C[C@H]1CCc1ccccc1)N2C	8.00	-0.77	1.01	7.15	0.47	0.54
